Structures can show the parent of a compound that is named as a salt.
Assay: MIC of test compounds against various organisms
Type: cell-based
Details: bound holds for all 11 organisms of the panel; read-out: MIC versus all these organisms
Experimental: The MIC (jig/ml) of test compounds against various organisms was determined:
S. aureus Oxford, S. aureus WCUH29, S. pneumoniae 1629, S. pneumoniae N1387, S. pneumoniae ERY 2, E. faecalis I, E. faecalis 7, H. influenzae Ql, H. influenzae NEMC1, M. catarrhalis 1502, E. coli 7623.

For `COc1ccc2nccc(NC(=O)[C@@]3(O)CCN(CCc4ccc5c(c4)NC(=O)CS5)C[C@@H]3O)c2n1` (racemic) [Example 18, (3S/R,4R/S)-3,4-Dihydroxy-1-[2-(3-oxo-3,4-dihydro-2H-benzo[1,4]thiazin-6-yl)-ethyl]-piperidine-4-carboxylic acid (6-methoxy-[1,5]naphthyridin-4-yl)amide dihydrochloride], which MIC is on record?
The MIC was ≤ 4 µg/mL.

With `COc1ccc2nccc(NC(=O)C3(O)CCN(C[C@H](O)c4ccc5c(n4)NC(=O)CS5)CC3)c2n1` (racemic) [Example 22, 4-Hydroxy-1-[2-(RS)-2-hydroxy-2-(3-oxo-3,4-dihydro-2H-pyrido[3,2-b][1,4]thiazin-6-yl)-ethyl]-piperidine-4-carboxylic acid (6-methoxy-[1,5]naphthyridin-4-yl)amide dihydrochloride] as the molecule, how does the MIC read?
Its MIC is ≤ 4 µg/mL.

Which MIC does the source give for `COc1ccc2nccc(NC(=O)C3(OC)CCN(C[C@H](O)c4ccc5c(n4)NC(=O)CS5)CC3)c2n1` (racemic) [Example 23, 4-Methoxy-1-[2-(RS)-2-hydroxy-2-(3-oxo-3,4-dihydro-2H-pyrido[3,2-b][1,4]-thiazin-6-yl)-ethyl]-piperidine-4-carboxylic acid (6-methoxy-[1,5]naphthyridinyl)amide dihydrochloride] here?
Its MIC is ≤ 4 µg/mL.

With `COc1ccc2nccc(CCC3(O)CCN(C[C@H](O)c4ccc5c(c4)NC(=O)CS5)CC3)c2n1` (racemic) [Example 27, 6-((R,S)-1-Hydroxy-2-(4-hydroxy-4-[2-(6-methoxy-[1,5]naphthyridin-4-yl)ethyl]piperidin-1yl}ethyl)-4H-benzo[1,4]thiazin-3-one] as the molecule, how does the MIC read?
Its MIC is ≤ 4 µg/mL.

For `COc1ccc2nccc(N3CCC4(CCN(C[C@H](O)c5ccc6c(c5)NC(=O)CO6)CC4)C3=O)c2n1` [Example 7, 6-{1-R,S-Hydroxy-2-[2-(6-methoxy-[1,5]naphthyridin-4-yl)-1-oxo-2,8-diaza-spiro[4.5]dec-8-yl]-ethyl)4H-benzo[1,4]oxazin-3-one oxalate], which MIC is on record?
Its MIC is ≤ 16 µg/mL.

With `COc1ccc2nccc(NC(=O)C3(O)CCN(CC(O)c4ccc5c(c4)NC(=O)CS5)CC3)c2n1` (centres unmarked) [Example 9, 4-Hydroxy-1-[2-R,S-hydroxy-2-(3-oxo-3,4-dihydro-2H-benzo[1,4]thiazin-6-yl)-ethyl]-piperidine-4-carboxylic acid (6-methoxy-[1,5]naphthyridin-4-yl)amide oxalate] as the molecule, how does the MIC read?
The MIC was ≤ 4 µg/mL.

For `COc1ccc2nccc(NC(=O)C3(N)CCN(CC(O)c4cc5c(cc4F)SCC(=O)N5)CC3)c2n1` (centres unmarked) [Example 11, 4-Amino-1-[2-(7-fluoro-3-oxo-3,4-dihydro-2H-benzo[1,4]thiazin-6-yl)-2-R,S-hydroxy-ethyl]-piperidine-4-carboxylic acid (6-methoxy-[1,5]naphthyridin-4-yl)-amide dioxalate], which MIC is on record?
Its MIC is ≤ 16 µg/mL.

For `COc1ccc2nccc(NC(=O)C3(N)CCN(CC(O)c4ccc5c(c4)NC(=O)CS5)CC3)c2n1` (centres unmarked) [Example 12, 4-Amino-1-[2-R,S-hydroxy-2-(3-oxo-3,4-dihydro-2H-benzo[1,4]thiazin-6-yl)-ethyl]-piperidine-4-carboxylic acid (6-methoxy-[1,5]naphthyridinyl)-amide dihydrochloride], which MIC is on record?
Its MIC is ≤ 4 µg/mL.

For `COc1ccc2nccc(NC(=O)C3(OC)CCN(CC(O)c4ccc5c(c4)NC(=O)CS5)CC3)c2n1` (centres unmarked) [Example 16, 1-[2-R,S-Hydroxy-2-(3-oxo-3,4-dihydro-2H-benzo[1,4]thiazin-6-yl)-ethyl]-4-methoxy-piperidine-4-carboxylic acid (6-methoxy-[1,5]naphthyridin-4-yl)-amide dihydrochloride], which MIC is on record?
Its MIC is ≤ 4 µg/mL.

For `COc1ccc2nccc(NC(=O)C3(OC)CCN(C[C@@H](O)c4ccc5c(c4)OCCO5)CC3)c2n1` [Example 17, 1-[2-(2,3-Dihydro-benzo[1,4]dioxin-6-yl)-2-R,S-hydroxy-ethyl]-4-methoxy-piperidine-4-carboxylic acid (6-methoxy-[1,5]naphthyridin-4-yl)-amide dihydrochloride], which MIC is on record?
Its MIC is ≤ 16 µg/mL.

Which MIC does the source give for `COc1ccc2nccc(NC(=O)C3(C(N)=O)CCN(C[C@@H](O)c4ccc5c(c4)OCCO5)CC3)c2n1` [Example 21, 1-[2-(2,3-Dihydro-benzo[1,4]dioxin-6-yl)-2-R,S-hydroxy-ethyl]-piperidine-4,4-dicarboxylic acid amide (6-methoxy-[1,5]naphthyridin-4-yl)-amide dihydrochloride] here?
The MIC was ≤ 16 µg/mL.

For `COc1ccc2nccc(NC(=O)C3(O)CCN(CCc4cc5c(cn4)OCCO5)CC3)c2n1` [Example 25, 1-[2-(2,3-Dihydro-[1,4]dioxino[2,3-c]pyridin-7-yl)-ethyl]4-hydroxy-piperidine-4-carboxylic acid(6-methoxy-[1,5]naphthyridin-4-yl)-amide hydrochloride], which MIC is on record?
The MIC was ≤ 4 µg/mL.

Which MIC does the source give for `COc1cc(F)c2nccc(NC(=O)C3(O)CCN(CCc4cc5c(cn4)OCCO5)CC3)c2c1` [Example 26, 1-[2-(2,3-Dihydro-[1,4]dioxino[2,3-c]pyridin-7-yl)-ethyl]-4-hydroxy-piperidine-4-carboxylic acid(8-fluoro-6-methoxy-quinolin-4-yl)-amide hydrochloride] here?
The MIC was ≤ 4 µg/mL.

With `COc1ccc2nccc(CCC3(O)CCN(CCc4ccc5c(c4)NC(=O)CS5)CC3)c2n1` [Example 28, 6-(2-{4-hydroxy-4-[2-(6-methoxy-[1,5]naphthyridin-4-yl)ethyl]piperidin-1yl}ethyl)-4H-benzo[1,4]thiazin-3-one] as the molecule, how does the MIC read?
Its MIC is ≤ 4 µg/mL.

Same assay, conditions: bound holds only for some of the 11 organisms of the panel; read-out: MIC versus some of these organisms

For `COc1ccc2nccc(NC(=O)C3(C(=O)O)CCN(CCc4ccc5c(c4)NC(=O)CS5)CC3)c2n1` [Example 6, 4-(6-Methoxy-[1,5]naphthyridin-4-ylcarbamoyl)-1-[2-(3-oxo-3,4-dihydro-2H-benzo[1,4]thiazin-6-yl)-ethyl]-piperidine-4-carboxylic acid], which MIC is on record?
The MIC was ≤ 64 µg/mL.

For `COc1ccc2nccc(NC(=O)[C@@]3(O)CCN(CCc4ccc5c(c4)NC(=O)CS5)C[C@@H]3OC)c2n1` [Example 19, 4-R/S-Hydroxy-3-S/R-methoxy-1-[2-(3-oxo-3,4-dihydro-2H-benzo[1,4]thiazin-6-yl)-ethyl]-piperidine-4-carboxylic acid (6-methoxy-[1,5]naphthyridinyl)-amide dihydrochloride], which MIC is on record?
Its MIC is ≤ 64 µg/mL.

Same assay, conditions: read-out: MIC versus all these organisms

For `COc1ccc2nccc(NC(=O)C3(O)CCN(CC(O)c4ccc5c(c4)OCCO5)CC3)c2n1` (racemic) [Example 13, 1-[2-(2,3-Dihydro-benzo[1,4]dioxin-6-yl)-2-(R,S)-hydroxy-ethyl]-4-hydroxy-piperidine-4-carboxylic acid (6-methoxy-[1,5]naphthyridin-4-yl)-amide dihydrochloride], which MIC is on record?
Its MIC is ≤ 16 µg/mL.

Which MIC does the source give for `COc1ccc2nccc(NC(=O)C3(C)CCN(CCc4ccc5c(c4)NC(=O)CS5)CC3)c2n1` [Example 1, 4-Methyl-1-[2-(3-oxo-3,4-dihydro-2H-benzo[1,4]thiazin-6-yl)-ethyl]-piperidine-4-carboxylic acid (6-methoxy-[1,5]naphthyridin-4-yl)amide oxalate] here?
Its MIC is ≤ 4 µg/mL.

Which MIC does the source give for `COc1ccc2nccc(NC(=O)C3(N)CCN(CCc4ccc5c(c4)NC(=O)CS5)CC3)c2n1` [Example 2, 4-Amino-1-[2-(3-oxo-3,4-dihydro-2H-benzo[1,4]thiazin-6-yl)-ethyl]-piperidine-4-carboxylic acid (6-methoxy-[1,5]naphthyridin-4-yl)amide dioxalate] here?
Its MIC is ≤ 4 µg/mL.

Which MIC does the source give for `COc1ccc2nccc(NC(=O)C3(O)CCN(CCc4ccc5c(c4)OCO5)CC3)c2n1` [Example 3, 1-(2-Benzo[1,3]dioxol-5-yl-ethyl)-4-hydroxy-piperidine-4-carboxylic acid (6-methoxy-[1,5]naphthyridin-4yl)amide oxalate] here?
The MIC was ≤ 16 µg/mL.

With `COc1ccc2nccc(NC(=O)C3(C)CCN(CCc4ccc5c(c4)OCO5)CC3)c2n1` [Example 4, 1-(2-Benzo[1,3]dioxol-5-yl-ethyl)4-methylpiperidine-4-carboxylic acid (6-methoxy-[1,5]naphthyridin-4-yl)-amide oxalate] as the molecule, how does the MIC read?
The MIC was ≤ 16 µg/mL.

With `COc1ccc2nccc(NC(=O)C3(O)CCN(CCc4ccc5c(c4)NC(=O)CS5)CC3)c2n1` [Example 5, 4-Hydroxy-1-[2-(3-oxo-3,4-dihydro-2H-benzo[1,4]thiazin-6-yl)-ethyl]-piperidine-4-carboxylic acid (6-methoxy-[1,5]naphthyridin-4-yl)-amide oxalate] as the molecule, how does the MIC read?
Its MIC is ≤ 64 µg/mL.

With `COc1ccc2nccc(NC(=O)C3(O)CCN(CC(=O)c4ccc5c(c4)NC(=O)CS5)CC3)c2n1` [Example 8, 4-Hydroxy-1-[2-oxo-2-(3-oxo-3,4-dihydro-2H-benzo[1,4]thiazin-6-yl)-ethyl]-piperidine-4-carboxylic acid (6-methoxy-[1,5]naphthyridin-4-yl)-amide oxalate] as the molecule, how does the MIC read?
Its MIC is ≤ 64 µg/mL.

Which MIC does the source give for `COc1ccc2nccc(NC(=O)C3(CO)CCN(CCc4ccc5c(c4)NC(=O)CS5)CC3)c2n1` [Example 10, 4-Hydroxymethyl-1-[2-(3-oxo-3,4-dihydro-2H-benzo[1,4]thiazin-6-yl)-ethyl]-piperidine-4-carboxylic acid (6-methoxy-[1,5]naphthyridin-4-yl)-amide oxalate] here?
Its MIC is ≤ 4 µg/mL.

For `COc1ccc2nccc(NC(=O)C3(O)CCN(CCc4cc5c(nn4)SCC(=O)N5)CC3)c2n1` [Example 14, 4-Hydroxy-1-[2-(6-oxo-6,7-dihydro-5H-pyridazino[3,4-b][1,4]thiazin-3-yl)-ethyl]-piperidine-4-carboxylic acid (6-methoxy-[1,5]naphthyridin-4-yl)-amide dihydrochloride], which MIC is on record?
Its MIC is ≤ 4 µg/mL.

With `COc1ccc2nccc(NC(=O)C3(C#N)CCN(CCc4ccc5c(c4)NC(=O)CS5)CC3)c2n1.Cl.Cl` [Example 20, 4-Cyano-1-[2-(3-oxo-3,4-dihydro-2H-benzo[1,4]thiazin-6-yl)-ethyl]-piperidine-4-carboxylic acid (6-methoxy-[1,5]naphthyridin-4-yl)-amide dihydrochloride] as the molecule, how does the MIC read?
Its MIC is ≤ 64 µg/mL.

Reference: patent US20040198756A1, “Medicaments” (priority 2001, published 2004)
